{
  "source": "patent US11446287B2",
  "about": "“Compounds and methods for EP300 or CBP modulation and indications therefor” (Opna Immuno-Oncology SA, priority 2019, dated 2022)",
  "data": [
    {"target": "T1, Recombinant human BRD4 containing dual bromodomains (BRD4-BD12 (1-477)) (Homo sapiens, UniProt O60885)", "T1 construct": "Recombinant human BRD4 containing dual bromodomains (BRD4-BD12 (1-477)); made in house; host or cells: E. coli BL21-CodonPlus (DE3), modified pET vector", "assay": "BRD4 Alphascreen binding assay", "how_it_was_run": "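His-tagged human BRD4 tandem bromodomains (1-477, E. coli) incubated 1 h at room temperature with biotinylated tetra-acetylated H4 (1-21) peptide and compound in HEPES pH 7.5 buffer with 2 mM DTT. AlphaScreen signal read 30 min after adding beads (7.5 μg/ml); IC50 from four-parameter fit after normalization to controls.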", "units": {"IC50": "µM"}, "values": [
      {"smiles": "Cc1noc(C)c1-c1cnc2c(c1)c(-c1c(Cl)cc(C(=O)O)cc1OC(C)C)cn2C1(C)CCOC1", "note": "(centres unmarked) [P-0408, 3-chloro-4-(5-(3,5-dimethylisoxazol-4-yl)-1-(3-methyltetrahydrofuran-3-yl)-1H-pyrrolo[2,3-b]pyridin-3-yl)-5-isopropoxybenzoic acid]", "IC50": "8 to 1000"},
      {"smiles": "Cc1noc(C)c1-c1cnc2c(c1)c(C1CCC(C(=O)O)CC1)cn2-c1ccc(F)cc1F", "note": "(centres unmarked) [P-0434, 4-(1-(2,4-difluorophenyl)-5-(3,5-dimethylisoxazol-4-yl)-1H-pyrrolo[2,3-b]pyridin-3-yl)cyclohexane-1-carboxylic acid]", "IC50": "1 to 8"},
      {"smiles": "Cc1noc(C)c1-c1cnc2c(c1)c(-c1cccc(C(=O)O)c1)cn2Cc1ccccc1", "note": "[P-0048, 3-(1-benzyl-5-(3,5-dimethylisoxazol-4-yl)-1H-pyrrolo[2,3-b]pyridin-3-yl)benzoic acid]", "IC50": "1 to 8"},
      {"smiles": "COC(=O)c1cc(-c2cn(C(c3ccccn3)C3CCCC3)c3ncc(-c4c(C)noc4C)cc23)ccn1", "note": "(centres unmarked) [P-0040, methyl 4-(1-(cyclopentyl(pyridin-2-yl)methyl)-5-(3,5-dimethylisoxazol-4-yl)-1H-pyrrolo[2,3-b]pyridin-3-yl)picolinate]", "IC50": "1 to 8"},
      {"smiles": "Cc1cc(C(=O)O)cc(OC(C)C)c1-c1cn(C2CCOCC2)c2ncc(-c3c(C)noc3C)cc12", "note": "[P-0402, 4-(5-(3,5-dimethylisoxazol-4-yl)-1-(tetrahydro-2H-pyran-4-yl)-1H-pyrrolo[2,3-b]pyridin-3-yl)-3-isopropoxy-5-methylbenzoic acid]", "IC50": "1 to 8"},
      {"smiles": "CCOc1cc(C(=O)O)nc(OCC)c1-c1cn(-c2ncccc2C#N)c2ncc(-c3c(C)noc3C)cc12", "note": "[P-0421, 5-(1-(3-cyanopyridin-2-yl)-5-(3,5-dimethylisoxazol-4-yl)-1H-pyrrolo[2,3-b]pyridin-3-yl)-4,6-diethoxypicolinic acid]", "IC50": "8 to 1000"},
      {"smiles": "Cc1noc(C)c1-c1cnc2c(c1)c(-c1cnn(CC(C)(C)O)c1)cn2C(c1ccccn1)C1CCCC1", "note": "(centres unmarked) [P-0037, 1-(4-(1-(cyclopentyl(pyridin-2-yl)methyl)-5-(3,5-dimethylisoxazol-4-yl)-1H-pyrrolo[2,3-b]pyridin-3-yl)-1H-pyrazol-1-yl)-2-methylpropan-2-ol]", "IC50": "1 to 8"},
      {"smiles": "Cc1noc(C)c1-c1cnc2c(c1)c(-c1ccc(C(=O)O)cc1OC(F)(F)F)cn2-c1ccc(=O)n(C)c1", "note": "[P-0399, 4-(5-(3,5-dimethylisoxazol-4-yl)-1-(1-methyl-6-oxo-1,6-dihydropyridin-3-yl)-1H-pyrrolo[2,3-b]pyridin-3-yl)-3-(trifluoromethoxy)benzoic acid]", "IC50": "1 to 8"},
      {"smiles": "Cc1noc(C)c1-c1cnc2c(c1)c(-c1ccc(C(=O)O)cc1OC(F)(F)F)cn2-c1ccc(C2CC2)nc1", "note": "[P-0388, 4-(1-(6-cyclopropylpyridin-3-yl)-5-(3,5-dimethylisoxazol-4-yl)-1H-pyrrolo[2,3-b]pyridin-3-yl)-3-(trifluoromethoxy)benzoic acid]", "IC50": "1 to 8"},
      {"smiles": "CCOc1cc(C(=O)O)c(F)cc1-c1cn(C2CCN(CCC#N)CC2)c2ncc(-c3c(C)noc3C)cc12", "note": "[P-0446, 4-(1-(1-(2-cyanoethyl)piperidin-4-yl)-5-(3,5-dimethylisoxazol-4-yl)-1H-pyrrolo[2,3-b]pyridin-3-yl)-5-ethoxy-2-fluorobenzoic acid]", "IC50": "8 to 1000"},
      {"smiles": "Cc1noc(C)c1-c1cnc2c(c1)c(-c1ccc(CC(=O)O)cc1F)cn2-c1ccc(F)cc1F", "note": "[P-0437]", "IC50": "1 to 8"},
      {"smiles": "COc1ncc(-n2cc(-c3ccc(C(=O)O)cc3OC(F)(F)F)c3cc(-c4c(C)noc4C)cnc32)cn1", "note": "[P-0392, 4-(5-(3,5-dimethylisoxazol-4-yl)-1-(2-methoxypyrimidin-5-yl)-1H-pyrrolo[2,3-b]pyridin-3-yl)-3-(trifluoromethoxy)benzoic acid]", "IC50": "1 to 8"},
      {"smiles": "CCOc1cc(C(=O)O)nc(OCC)c1-c1cn(C2CCN(C(=O)OC(C)(C)C)CC2)c2ncc(-c3c(C)noc3C)cc12", "note": "[P-0433, 5-(1-(1-(tert-butoxycarbonyl)piperidin-4-yl)-5-(3,5-dimethylisoxazol-4-yl)-1H-pyrrolo[2,3-b]pyridin-3-yl)-4,6-diethoxypicolinic acid]", "IC50": "8 to 1000"},
      {"smiles": "CCc1onc(C)c1-c1cnc2c(c1)c(-c1c(Cl)cc(C(=O)O)cc1OC(F)(F)F)cn2-c1ccc(C2CC2)nc1", "note": "[P-0448, 3-chloro-4-(1-(6-cyclopropylpyridin-3-yl)-5-(5-ethyl-3-methylisoxazol-4-yl)-1H-pyrrolo[2,3-b]pyridin-3-yl)-5-(trifluoromethoxy)benzoic acid]", "IC50": "1 to 8"},
      {"smiles": "CCOc1cc(C(=O)O)nc(OCC)c1-c1cn(-c2cnc(C3CC3)nc2)c2ncc(-c3c(C)noc3C)cc12", "note": "[P-0424, 5-(1-(2-cyclopropylpyrimidin-5-yl)-5-(3,5-dimethylisoxazol-4-yl)-1H-pyrrolo[2,3-b]pyridin-3-yl)-4,6-diethoxypicolinic acid]", "IC50": "1 to 8"},
      {"smiles": "CCc1noc(C)c1-c1cnc2c(c1)c(-c1ccc(C(=O)O)cc1OC(F)(F)F)cn2C1CCOCC1", "note": "[P-0400, 4-(5-(3-ethyl-5-methylisoxazol-4-yl)-1-(tetrahydro-2H-pyran-4-yl)-1H-pyrrolo[2,3-b]pyridin-3-yl)-3-(trifluoromethoxy)benzoic acid]", "IC50": "1 to 8"},
      {"smiles": "CCOc1nc(C(=O)O)cc(C)c1-c1cn(C(C2CC2)C2CC2)c2ncc(-c3c(C)noc3C)cc12", "note": "[P-0417, 5-(1-(dicyclopropylmethyl)-5-(3,5-dimethylisoxazol-4-yl)-1H-pyrrolo[2,3-b]pyridin-3-yl)-6-ethoxy-4-methylpicolinic acid]", "IC50": "8 to 1000"},
      {"smiles": "Cc1noc(C)c1-c1cnc2c(c1)c(-c1cnn(C(C)(C)C(=O)O)c1)cn2C(c1ccccn1)C1CCCC1", "note": "(centres unmarked) [P-0035, 2-(4-(1-(cyclopentyl(pyridin-2-yl)methyl)-5-(3,5-dimethylisoxazol-4-yl)-1H-pyrrolo[2,3-b]pyridin-3-yl)-1H-pyrazol-1-yl)-2-methylpropanoic acid]", "IC50": "1 to 8"},
      {"smiles": "Cc1noc(C)c1-c1cnc2c(c1)c(-c1c(Cl)cc(C(=O)O)cc1OC1CCC1)cn2-c1ncccc1C#N", "note": "[P-0396, 3-chloro-4-(1-(3-cyanopyridin-2-yl)-5-(3,5-dimethylisoxazol-4-yl)-1H-pyrrolo[2,3-b]pyridin-3-yl)-5-cyclobutoxybenzoic acid]", "IC50": "1 to 8"},
      {"smiles": "CCOc1nc(C(=O)O)c(Cl)cc1-c1cn(C2CCOCC2)c2ncc(-c3c(C)noc3C)cc12", "note": "[P-0398, 3-chloro-5-(5-(3,5-dimethylisoxazol-4-yl)-1-(tetrahydro-2H-pyran-4-yl)-1H-pyrrolo[2,3-b]pyridin-3-yl)-6-ethoxypicolinic acid]", "IC50": "8 to 1000"},
      {"smiles": "Cc1noc(C)c1-c1cnc2c(c1)c(-c1c(Cl)cc(C(=O)O)cc1OC(F)(F)F)cn2-c1ccc(C2CC2)nc1", "note": "[P-0441, 3-chloro-4-(1-(6-cyclopropylpyridin-3-yl)-5-(3,5-dimethylisoxazol-4-yl)-1H-pyrrolo[2,3-b]pyridin-3-yl)-5-(trifluoromethoxy)benzoic acid]", "IC50": "0.0001 to 1"},
      {"smiles": "Cc1noc(C)c1-c1cnc2c(c1)c(-c1c(Cl)cc(C(=O)O)cc1OC(C)C)cn2-c1cnc(C2CC2)nc1", "note": "[P-0393, 3-chloro-4-(1-(2-cyclopropylpyrimidin-5-yl)-5-(3,5-dimethylisoxazol-4-yl)-1H-pyrrolo[2,3-b]pyridin-3-yl)-5-isopropoxybenzoic acid]", "IC50": "1 to 8"},
      {"smiles": "CCOc1cc(C(=O)O)nc(OCC)c1-c1cn(-c2ncccc2C(N)=O)c2ncc(-c3c(C)noc3C)cc12", "note": "[P-0422, 5-(1-(3-carbamoylpyridin-2-yl)-5-(3,5-dimethylisoxazol-4-yl)-1H-pyrrolo[2,3-b]pyridin-3-yl)-4,6-diethoxypicolinic acid]", "IC50": "8 to 1000"}
    ]}
  ]
}
